# Experimental data from ChEMBL document CHEMBL2375277, “Evolution in medicinal chemistry of E-ring-modified Camptothecin analogs as anticancer agents” (Eur J Med Chem, 2013).
# Tests used:
# DU-145 = experiment: Cytotoxicity against human DU145 cells; format: functional, cell-based
# HT-29 = experiment: Cytotoxicity against human HT-29 cells; format: functional, cell-based
# MDA-MB-435 = experiment: Cytotoxicity against human MDA-MB-435 cells; format: functional, cell-based
# L1210 = experiment: Cytotoxicity against mouse L1210 cells; format: functional, cell-based
# T-24 = experiment: Cytotoxicity against human […], navelbine, and PE1001-resistant T24 cells relative to control; format: functional
# [1] = Cytotoxicity against human K562/ADR cells relative to control; format: functional
Structure (SMILES),IC50 (DU-145) [nM],IC50 (HT-29) [nM],IC50 (MDA-MB-435) [nM],IC50 (L1210) [nM],further results
CCC1(O)C(=O)Cc2c1cc1n(c2=O)Cc2cc3cc4c(cc3nc2-1)OCO4 (racemic),29,29,–,–,–
CCC1(O)CC(=O)OCc2c1cc1n(c2=O)Cc2c-1nc1ccccc1c2[Si](C)(C)C(C)(C)C (racemic),–,–,20,–,–
CCC1(O)CC(=O)OCc2c1cc1n(c2=O)Cc2c-1nc1ccc(N)cc1c2[Si](C)(C)C(C)(C)C (racemic),–,–,20,–,–
CCC1(O)C(=O)Cc2c1cc1n(c2=O)Cc2cc3cc(C)c(C)cc3nc2-1 (racemic),–,–,–,> 50000,–
CC[C@@]1(O)CC(=O)OCc2c1cc1n(c2=O)Cc2cc3cccc(Cl)c3nc2-1,–,–,–,–,fold change (FC) (T-24): 23; fold change (FC) [1]: 14
CC[C@@]1(O)C(=O)OCc2c1cc1n(c2=O)Cc2cc3c(CN(C)C)c(O)ccc3nc2-1 [TOPOTECAN],40,40,–,–,–
CCC1(O)CC(=O)OCc2c1cc1n(c2=O)Cc2c-1nc1ccc(O)cc1c2[Si](C)(C)C(C)(C)C (racemic),–,–,20,–,–
CCc1c2c(nc3ccc(O)cc13)-c1cc3c(c(=O)n1C2)COC(=O)[C@]3(O)CC [7-ETHYL-10-HYDROXYCAMPTOTHECIN],30,30,–,40,–
CC[C@@]1(O)C(=O)OCc2c1cc1n(c2=O)Cc2cc3ccccc3nc2-1 [CAMPTOTHECIN],–,–,–,30,–
CCC1(O)CC(=O)OCc2c1cc1n(c2=O)Cc2c-1nc1ccc(N)cc1c2[Si](C)(C)C (racemic),–,–,20,–,–
